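Exposure lasted 48 hours, with cells grown in 96-well plates and compounds tested at five concentrations. TGI is the concentration that stops growth completely.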
Legend:
Test in all cases: growth of human tumour cells (NCI), 48 h
HCC-2998 colon = system: HCC-2998 colon
HL-60(TB) leukemia = system: HL-60(TB) leukemia
HT29 colon = system: HT29 colon
K-562 leukemia = system: K-562 leukemia
NCI/ADR-RES ovarian = system: NCI/ADR-RES ovarian
RPMI-8226 leukemia = system: RPMI-8226 leukemia
SF-539 CNS = system: SF-539 CNS
SNB-75 CNS = system: SNB-75 CNS
TK-10 renal = system: TK-10 renal
UACC-62 melanoma = system: UACC-62 melanoma

Row | SMILES | TGI (HCC-2998 colon) [µM] | TGI (HL-60(TB) leukemia) [µM] | TGI (HT29 colon) [µM] | TGI (K-562 leukemia) [µM] | TGI (NCI/ADR-RES ovarian) [µM] | TGI (RPMI-8226 leukemia) [µM] | TGI (SF-539 CNS) [µM] | TGI (SNB-75 CNS) [µM] | TGI (TK-10 renal) [µM] | TGI (UACC-62 melanoma) [µM]
1 | Nc1c(-c2cccc3ccccc23)c2ccc([N+](=O)[O-])cc2c(=O)n1-c1nc2ccccc2s1 | > 100 | 5.37 | 19.9 | > 100 | 10.5 | > 49.6 | 14.8 | 9.65 | > 100 | > 100
2 | Cc1csc(-c2cn(C)c3c2C(=O)C(N)=CC3=O)n1 | > 100 | 14.8 | > 67.1 | > 100 | > 100 | > 22.8 | > 100 | 6.48 | > 100 | 26.3
3 | CN(C)CCCN1C(=S)N(CCCN(C)C)c2c3cc(O)ccc3nc3c([N+](=O)[O-])ccc1c23 | 8.02 | 22.1 | 6.31 | > 33 | 22.4 | 15.5 | 17.1 | 16.9 | 29 | 19.6
4 | N#CC(C#N)=CNC(=S)c1ccncc1 | > 100 | > 100 | > 100 | > 100 | > 100 | > 100 | 68.4 | > 100 | – | > 100
5 | CC1(C)N=C(C(N)=O)c2ncn(CCCO)c2N1 | > 100 | > 100 | > 100 | > 100 | > 100 | > 100 | > 100 | > 100 | > 100 | > 100
6 | Brc1cccc(Nc2nc(-c3cccs3)nc3ccc(Br)cc23)c1 | 42.1 | > 100 | 53 | > 100 | > 100 | > 100 | > 100 | > 100 | 88 | 35.8
7 | O=C1c2cc3c(cc2CC1Br)CCC3 (configuration not stated) | 13.4 | > 20.1 | 5.78 | 7.04 | 19.2 | 4.45 | 4.2 | 7.44 | 8.77 | 11.7
8 | O=c1c2cc3c(cc2[nH]c2ncccc12)OCO3 | > 10 | > 10 | > 10 | > 10 | > 10 | > 10 | > 10 | > 10 | > 10 | > 10
9 | CC(C)COP(=O)(OCC(C)C)C(NS(=O)(=O)c1ccccc1)(C(F)(F)F)C(F)(F)F | 18.5 | 4.13 | 25.4 | > 100 | 23.6 | 6.46 | 29.1 | 12.6 | 15.6 | 19.1
10 | CCCn1c(CN(Cc2nc3ccccc3n2CCC)Cc2nc3ccccc3n2CCC)nc2ccccc21 | 30 | 4.46 | > 41.1 | 32.1 | > 100 | 5.36 | > 50.9 | 75.1 | > 100 | 18.3
11 | O=C(/C=C/c1ccsc1)c1ccsc1 | 35.6 | 40.6 | 74.8 | – | > 100 | 47.2 | 37.9 | > 100 | 74.4 | 89.9
12 | CN(C)c1nc(=NCc2ccccc2)ss1 | > 10 | > 8.45 | > 10 | > 10 | > 10 | > 10 | > 10 | > 10 | > 10 | > 10
13 | C/C(CC1C2CCCC1C2)=N\NC(N)=O (configuration not stated) | > 100 | > 100 | > 100 | – | > 100 | > 100 | > 100 | > 100 | > 100 | > 100
14 | CCCCC1c2c([nH]c3ccccc23)C2C(=O)N(c3ccc(OC)cc3)C(=O)C2C1CCC (configuration not stated) | > 10 | 5.45 | 8.52 | 7.43 | 5.68 | 8.99 | 5.11 | 6.5 | > 10 | 6.77
15 | N#C/C(=C\c1cc(Br)c(O)c(Br)c1)c1cccnc1 | > 100 | > 100 | > 100 | > 100 | 59.1 | 86.3 | 71.5 | > 100 | 87.2 | > 100
16 | O=P(c1ccccc1)(c1ccccc1)N1O[C@@H](c2ccccc2)C=C[C@H]1c1ccccc1 | 27.5 | 28.4 | 26.5 | 80.1 | 24 | 56.6 | 33 | 26.5 | 27.8 | 19.5
17 | CO[C@]12CC(=O)C3(C(C[C@H]4CC5CC=C6C[C@@H](OC(C)=O)CC[C@]6(OC(C)=O)C5C[C@@]43C)C1)C1C[C@H]3[C@@H]4CC=C5C[C@@H](OC(C)=O)CC[C@]5(OC(C)=O)[C@H]4CC[C@]3(C)C12 (some centres not stated) | 41.6 | > 100 | 29.5 | > 100 | 51.3 | > 100 | 37.2 | 94.2 | > 100 | 79

From PubChem BioAssay (NCI)
